In data set [1] the target is T1, Enoyl-[acyl-carrier-protein] reductase [NADPH] FabI (Staphylococcus aureus) (UniProt Q6GI75).
T1 sequence (whole entry): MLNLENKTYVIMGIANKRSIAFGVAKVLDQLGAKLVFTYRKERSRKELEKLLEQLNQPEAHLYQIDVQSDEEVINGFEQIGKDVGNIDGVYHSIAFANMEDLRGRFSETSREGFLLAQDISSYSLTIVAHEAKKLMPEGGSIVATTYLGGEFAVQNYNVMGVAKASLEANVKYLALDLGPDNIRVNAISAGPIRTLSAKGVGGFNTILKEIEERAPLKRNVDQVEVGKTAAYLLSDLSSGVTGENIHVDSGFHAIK
In words: Inhibition of N-terminal his 6 tagged Staphylococcus aureus Fabi (1 to […] residues) expressed in Escherichia coli BL21 at 10 uM incubated for 30 mins in presence of NADPH by fluorescence based microplate reader analysis relative to control.

Data set [2] concerns the target T1, Enoyl-[acyl-carrier-protein] reductase [NADPH] FabI (Staphylococcus aureus). The data set can be described thus: Inhibition of N-terminal his 6 tagged Staphylococcus aureus Fabi (1 to […] residues) expressed in Escherichia coli BL21 at 1 uM incubated for 30 mins in presence of NADPH by fluorescence based microplate reader analysis relative to control.
The target in data set [3] is T2, Enoyl-[acyl-carrier-protein] reductase [NADPH] FabI (Staphylococcus aureus, UniProt Q6GI75).
T2 sequence (Q6GI75 whole entry): T1 sequence (whole entry)
In words: Inhibition of N-terminal his 6 tagged Staphylococcus aureus Fabi (1 to […] residues) expressed in Escherichia coli BL21 incubated for 30 mins in presence of NADPH by fluorescence based microplate reader analysis.

The nature of data set [4]: Inhibition of N-terminal his 6 tagged Escherichia coli Fabi (1 to 789 residues) expressed in Escherichia coli BL21 incubated for 30 mins in presence of NADH by fluorescence based microplate reader analysis.
The nature of data set [5]: Inhibition of N-terminal his 6 tagged Acinetobacter baumannii Fabi (1 to 804 residues) expressed in Escherichia coli BL21 incubated for 30 mins in presence of NADH by fluorescence based microplate reader analysis.
The test system of data set [6] is Staphylococcus aureus. The data set can be described thus: Antimicrobial activity against […] Staphylococcus aureus ATCC33591 measured after 24 hrs by CLSI protocol based microdilution method. It counts as functional. (Dilution methods test growth across graded concentrations, often in twofold steps.)
For data set [7], the system named is Staphylococcus aureus. The data set can be described thus: Antimicrobial activity against […] Staphylococcus aureus ATCC43300 measured after 24 hrs by CLSI protocol based microdilution method. It counts as functional.
In data set [8] the test system is Staphylococcus aureus. In words: Antimicrobial activity against […] Staphylococcus aureus USA300 measured after 24 hrs by CLSI protocol based microdilution method. In kind it is functional.
Data set [9] has as its system Staphylococcus aureus. In words: Antimicrobial activity against […] Staphylococcus aureus NRS271 measured after 24 hrs by CLSI protocol based microdilution method. It counts as functional.
Data set [10] concerns Staphylococcus aureus. The data set can be described thus: Antimicrobial activity against methicillin-susceptible Staphylococcus aureus ATCC29213 measured after 24 hrs by CLSI protocol based microdilution method. In kind it is functional.
Data set [11] deals with Staphylococcus aureus. In words: Antimicrobial activity against methicillin-susceptible Staphylococcus aureus ATCC25923 measured after 24 hrs by CLSI protocol based microdilution method. It counts as functional.
In a further data set the test system is Enterococcus faecium. In words: Antimicrobial activity against Enterococcus faecium ATCC19434 measured after 24 hrs by CLSI protocol based microdilution method. In kind it is functional.
The next data set deals with Enterococcus faecalis. In words: Antimicrobial activity against Enterococcus faecalis ATCC29212 measured after 24 hrs by CLSI protocol based microdilution method. In kind it is functional.
The next data set has as its system Pseudomonas aeruginosa. In words: Antimicrobial activity against Pseudomonas aeruginosa PAO1 measured after 24 hrs by CLSI protocol based microdilution method. In kind it is functional.
The next data set deals with Escherichia coli. In words: Antimicrobial activity against Escherichia coli ATCC25922 measured after 24 hrs by CLSI protocol based microdilution method. In kind it is functional.
The next data set concerns Acinetobacter baumannii. The data set can be described thus: Antimicrobial activity against Acinetobacter baumannii ATCC19606 measured after 24 hrs by CLSI protocol based microdilution method. It counts as functional.
The next data set deals with Candida albicans. The data set can be described thus: Antimicrobial activity against Candida albicans SC5314 measured after 48 hrs by CLSI protocol based microdilution method. In kind it is functional.
Data set [12] is described as follows: Cytotoxicity against HEK293 cells assessed as survival rate at 400 uM measured after 48 hrs by CCK-8 method relative to control. In kind it is toxicity, cell-based. Conditions: human, read-out: Survival. A general note: Tetrazolium assays rely on reduction of a dye to a coloured formazan, in cell work by metabolically active cells.
The subject of data set [13] is HepG2. In words: Cytotoxicity against human HepG2 cells assessed as survival rate at 400 uM measured after 48 hrs by CCK-8 method relative to control. In kind it is functional. Particulars: read-out: Survival.
Data set [14] in a line: Cytotoxicity against HEK293 cells assessed as survival rate at 800 uM measured after 48 hrs by CCK-8 method relative to control. In kind it is toxicity, cell-based. Conditions: human, read-out: Survival.
Data set [15] relates to HepG2. The data set can be described thus: Cytotoxicity against human HepG2 cells assessed as survival rate at 800 uM measured after 48 hrs by CCK-8 method relative to control. It counts as functional. Conditions: read-out: Survival.
Data set [16] in a line: Hemolytic activity in sheep erythrocytes assessed as hemolysis at 64 ug/ml incubated for 1 hr by microplate reader based analysis relative to control. Conditions: at 64 µg/mL, read-out: Activity. It counts as toxicity, cell-based, Ovis aries, Erythrocyte.
Data set [17] can be described thus: Hemolytic activity in sheep erythrocytes assessed as hemolysis at 128 ug/ml incubated for 1 hr by microplate reader based analysis relative to control. It counts as toxicity, cell-based, Ovis aries, Erythrocyte. Particulars: at 128 µg/mL, read-out: Activity.
Data set [18] can be described thus: Hemolytic activity in sheep erythrocytes assessed as hemolysis at 256 ug/ml incubated for 1 hr by microplate reader based analysis relative to control. In kind it is toxicity, cell-based, Ovis aries, Erythrocyte. Conditions: at 256 µg/mL, read-out: Activity.
A short description of data set [19]: Hemolytic activity in sheep erythrocytes assessed as hemolysis incubated for 1 hr by microplate reader based analysis. It counts as toxicity, cell-based, Ovis aries, Erythrocyte.
Data set [20] deals with Staphylococcus aureus. The data set can be described thus: Antimicrobial activity against Staphylococcus aureus measured after 24 hrs by CLSI protocol based microdilution method. It counts as functional.
Data set [21] in a line: Selectivity index, ratio of HC50 for sheep erythrocytes to MIC for Staphylococcus aureus. It counts as toxicity. Particulars: read-out: Selectivity Index.

The record followed here is ChEMBL document CHEMBL5500393, “Discovery and Optimization of Novel SaFabI Inhibitors as Specific Therapeutic Agents for MRSA Infection” (J Med Chem, 2024).

Usually inhibition stands for the change of the read-out against control, counted positive when it falls. For orientation: IC50 means the point on the concentration scale where inhibition reaches its midpoint. As usually defined, the MIC is the lowest concentration found to suppress growth. In general, HC50 refers to the concentration giving 50% haemolysis.

Converted amounts (≈) assume the structure as drawn.

Consider `Cn1c(C2CC(=O)N(c3cccc(Br)c3Cl)C2)nc2ccccc21` (centres undefined), for which the values for the inhibition in data set [1] and in data set [2] were 97.4% and 80.3%, respectively. Moreover, the IC50 was determined as 331 nM in data set [3], 35.9 nM in data set [4] and 266 nM in data set [5]. Moreover, the minimum inhibitory concentration (MIC) in the data set on Staphylococcus aureus [6] was found to be 2 µg/mL (≈ 4.94 µM); in the data set with Staphylococcus aureus [7] it was 2 µg/mL (≈ 4.94 µM); in the data set with Staphylococcus aureus [8], 1 µg/mL (≈ 2.47 µM); in the data set on Staphylococcus aureus [9] it was 4 µg/mL (≈ 9.88 µM); in the data set on Staphylococcus aureus [10] it was 2 µg/mL (≈ 4.94 µM); against Staphylococcus aureus [11], 1 µg/mL (≈ 2.47 µM). Further, the MIC against Enterococcus faecium, in the data set on Enterococcus faecalis, with Pseudomonas aeruginosa, against Escherichia coli, against Acinetobacter baumannii and in the data set on Candida albicans was above 32 µg/mL in each case. For the same compound, in the data set with Staphylococcus aureus [20], the minimal inhibitory concentration (MIC) was found to be 1 µg/mL (≈ 2.47 µM). Moreover, in [12], the viability at 48 h, 400 µM was above 70%. In addition, the viability at 400 µM in the data set with HepG2 [13] was above 70%. Also, in data set [14], the viability at 48 h, 800 µM was above 75%. The viability at 800 µM in the data set with HepG2 [15] was above 75%. Also, the hemolysis at 1 h, 64 ug/ml in data set [16] turned out to be 2.8%. Besides, in data set [17], the hemolysis at 1 h, 128 ug/ml turned out to be 4.7%. For the same compound, the hemolysis at 1 h, 256 ug/ml in [18] amounted to 10.6%. The HC50 at 1 h in data set [19] is above 256 µg/mL. Also, the selectivity ratio in data set [21] was above 64.
In the case of `Cc1cccc(N2CC(c3nc4ccccc4n3C)CC2=O)c1Br` (centres undefined), the values for the inhibition in data set [1] and in data set [2] were 92.6% and 30.1%, respectively. The IC50 in data set [3] came out at 1690 nM. For the same compound, the minimal inhibitory concentration (MIC) in the data set with Staphylococcus aureus [6] came to 16 µg/mL (≈ 41.6 µM); against Staphylococcus aureus [7] it was 32 µg/mL (≈ 83.3 µM); against Staphylococcus aureus [8], 16 µg/mL (≈ 41.6 µM); in the data set with Staphylococcus aureus [9] it was 32 µg/mL (≈ 83.3 µM); against Staphylococcus aureus [10], 16 µg/mL (≈ 41.6 µM); in the data set with Staphylococcus aureus [11] it was 8 µg/mL (≈ 20.8 µM). Besides, the MIC in the data set on Enterococcus faecium, with Enterococcus faecalis, in the data set with Pseudomonas aeruginosa, in the data set on Escherichia coli, in the data set with Acinetobacter baumannii and with Candida albicans was above 32 µg/mL in each case.
As for `Cn1c(C2CC(=O)N(c3cccc(Br)c3F)C2)nc2ccccc21` (centres undefined), the inhibition turned out to be 95.3% in data set [1] and 71.2% in data set [2]. Moreover, the IC50 was 482 nM in data set [3], 35.9 nM in data set [4] and 266 nM in [5]. Moreover, the minimal inhibitory concentration (MIC) in the data set with Staphylococcus aureus [6] turned out to be 4 µg/mL (≈ 10.3 µM); in the data set with Staphylococcus aureus [7], 4 µg/mL (≈ 10.3 µM); against Staphylococcus aureus [8], 4 µg/mL (≈ 10.3 µM); with Staphylococcus aureus [9], 8 µg/mL (≈ 20.6 µM); in the data set with Staphylococcus aureus [10], 2 µg/mL (≈ 5.15 µM); against Staphylococcus aureus [11], 2 µg/mL (≈ 5.15 µM). For the same compound, the minimal inhibitory concentration (MIC) against Enterococcus faecium, against Enterococcus faecalis, against Pseudomonas aeruginosa, against Escherichia coli, against Acinetobacter baumannii and with Candida albicans was above 32 µg/mL throughout.
On to `COc1cccc(N2CC(c3nc4ccccc4n3C)CC2=O)c1C` (centres undefined), for which the inhibition was found to be 88.2% in data set [1] and 27.9% in data set [2]. In addition, the IC50 in [3] turned out to be 2270 nM. Besides, the minimum inhibitory concentration (MIC) in the data set on Staphylococcus aureus [6] was above 32 µg/mL; against Staphylococcus aureus [7] it was 32 µg/mL (≈ 95.4 µM); against Staphylococcus aureus [8], 16 µg/mL (≈ 47.7 µM); against Staphylococcus aureus [9], 16 µg/mL (≈ 47.7 µM); in the data set with Staphylococcus aureus [10], 16 µg/mL (≈ 47.7 µM); in the data set with Staphylococcus aureus [11] it was 32 µg/mL (≈ 95.4 µM). Besides, the MIC against Enterococcus faecium, against Enterococcus faecalis, against Pseudomonas aeruginosa, against Escherichia coli, with Acinetobacter baumannii and against Candida albicans was above 32 µg/mL in each case.
